The values below come from patent publication US20150306068A1, “COMPOUNDS AND RELATED METHODS FOR TREATMENT OF NEURODEGENERATIVE DISEASES” (priority 2013, published 2015).

In one assay the test system is wild-type human tau. As to the kind of experiment: Western blot of tau levels in HeLa cells transfected with wild-type human tau. It is filed as cell-based. To be noted: treated 24 hours; for phosphorylated (pS199-202) wild type tau level: HeLa cells transfected with wild-type human tau, various doses, pS199-202 antibody; for C-terminal tau level (Tau 46 antibody) / N-terminal tau level (Tau H-150 antibody): human tau transfected HeLa cells, wild type and P301L not distinguished. Here is the method: (§1) Compounds effects on tau activity/level were determine by a previously described method (Jinwal et al J. Neurosci. 2009 Sep. 30; 29(39):12079-88). In brief, human tau transfected HeLa Cells were treated with Compounds for 24 hours. Cells were harvested by using MPER reagent containing protease inhibitor and phosphatase inhibitor. Samples were analyzed by western blot. pS199-202 antibody was used to detect phospho tau level. Total tau levels were detected by tau H-150 &/or tau 46 antibodies.
(§2) HeLa cells were transfected with wild-type human tau (A) and mutant P301L human tau (B) (FIG. 1). After 24 hours, cells were treated with either palmadorin M or beauvericin for 24 hours.

The next assay concerns mutant P301L human tau. As to the kind of experiment: Western blot of tau levels in HeLa cells transfected with mutant P301L human tau. Type of assay: cell-based. To be noted: treated 24 hours, various doses, pS199-202 antibody. The protocol:
as §1, §2

For the compound `CC(C)[C@H]1OC(=O)[C@H](Cc2ccccc2)N(C)C(=O)[C@@H](C(C)C)OC(=O)[C@H](Cc2ccccc2)N(C)C(=O)[C@@H](C(C)C)OC(=O)[C@H](Cc2ccccc2)N(C)C1=O` [beauvericin], in the assay with wild-type human tau, the “phosphorylated (pS199-202) wild type tau level” value is on record as “potent reduction”, the “C-terminal tau level (Tau 46 antibody)” value was “moderate change in tau level” and the “N-terminal tau level (Tau H-150 antibody)” value is given as “increase in tau level”. Besides, in the assay on mutant P301L human tau, the “phosphorylated (pS199-202) mutant P301L tau level” value is given as “potent reduction”.
As for `C=C1CC[C@@H]2C(C)(C)CCC[C@]2(C)[C@@H]1CC/C(C)=C/C(=O)OC(CO)CO` [palmadorin M], in the assay on wild-type human tau, the “phosphorylated (pS199-202) wild type tau level” value is “potent reduction”, the “C-terminal tau level (Tau 46 antibody)” value is listed as “moderate change in tau level” and the “N-terminal tau level (Tau H-150 antibody)” value is “increase in tau level”. Besides, in the assay with mutant P301L human tau, the “phosphorylated (pS199-202) mutant P301L tau level” value was “potent reduction”.
